The structures appear in SMILES notation.

For one series, the system named is SNL model rats. Nature of the series: Analgesic effect in a fifth lumbar nerve ligation (SNL) model, von Frey test. Conditions: for extension range of reaction thresholds ± standard error (50% paw withdrawal threshold, after minus before administration): about 10 mg formulation on footpad for 1 hour, evaluated another 1 hour after removal, n=9; for extension range of reaction thresholds compared with the vehicle group: about 10 mg formulation on footpad, versus vehicle (Control example 1). The class given is in vivo, Wistar rats. As to the method:
Test 2. […] A SNL model was prepared by a method of Kim and Chung (Pain 50, 355-363, 1992) with partial modification thereof. Specifically, male 5-week-old Wistar rats were anesthetized with pentobarbital and isoflurane inhalation, and under anesthesia, an unilateral fifth lumber nerve was exposed. Then, the fifth lumber nerve was ligated with a silk surgical suture to obtain a SNL model. Evaluation of the analgesic effect was conducted with the von Frey test. Specifically, an animal was poked with a von Frey hair on a footpad in a hind limb of an animal at the side of operation. Reaction thresholds (50% paw withdrawal thresholds) to mechanical stimulation were calculated with a formula according to a method of Chaplan (Journal of Neuroscience Methods 53, 55-63, 1994). […] Reaction thresholds were measured on one and two days before the evaluation of test compounds, and an average of the measured values was determined as the reaction threshold before administration of test compounds. […] One day after the division into groups, test compounds were administered. […] Administration of a test compound was carried out by application of about 10 mg of each formulation on a medical adhesive film, and attachment of the film to a footpad of a SNL rat at the side of operation under anesthesia with isoflurane inhalation. One hour after the application, the film was removed, and another one hour after, reaction thresholds after administration of the test compound were evaluated. After the evaluation, blood was immediately collected from a cervical vein, and the concentration of the test compound in plasma was measured. The efficacy of the analgesic effect of a test compound is shown as an extension range of reaction thresholds±standard error (g) by the following formula: (Reaction threshold after administration of a test compound)−(Reaction threshold before administration of a test compound).

Series [1] is described as follows: Concentration in plasma during continuous intravenous administration in guinea pigs. The class given is in vivo. Conditions: dose of 30 mg/kg continuous intravenous for 30 minutes. As to the method:
Evaluation of ECG of guinea pigs was conducted under anesthesia with intra-abdominal administration of a mixed solution of urethane and α-chloralose. Guinea pigs under anesthesia were retained in a supine position, and a right cervical vein was exposed to […] cannula. […] QRS interval and QTc interval are shown as rates of change (%) by similar equations.

The nature of series [2]: Concentration of the test compound in plasma after evaluation in SNL rats. The class given is in vivo. Conditions: Wistar, rat, topical about 10 mg formulation, blood collected immediately after evaluation (2 hours after application). As to the method: One day after the division into groups, test compounds were administered. […] Administration of a test compound was carried out by application of about 10 mg of each formulation on a medical adhesive film, and attachment of the film to a footpad of a SNL rat at the side of operation under anesthesia with isoflurane inhalation. One hour after the application, the film was removed, and another one hour after, reaction thresholds after administration of the test compound were evaluated. After the evaluation, blood was immediately collected from a cervical vein, and the concentration of the test compound in plasma was measured.

For series [3], the system named is ECG (electrocardiogram) parameters of guinea pigs. Nature of the series: Safety pharmacology study of the cardiovascular system: ECG parameters under anesthesia. In kind it is in vivo. Conditions: for effect on the cardiovascular system / ECG parameters: guinea pigs under anesthesia, continuous intravenous administration. As to the method: Test 3. […] Evaluation of ECG of guinea pigs was conducted under anesthesia with intra-abdominal administration of a mixed solution of urethane and α-chloralose. Guinea pigs under anesthesia were retained in a supine position, and a right cervical vein was exposed to […] cannula. […] QRS interval and QTc interval are shown as rates of change (%) by similar equations.

The mark [4] stands for this setting: 30 mg/kg continuous intravenous for 30 minutes, at 30 minutes after administration.
Setting [5] is: 15 mg/kg continuous intravenous for 30 minutes, at 30 minutes after administration.

`CCn1c(CN[C@@H](C)C(N)=O)nc2ccc(Oc3ccc(C)cc3)cc21` [Compound A, N^2-{[1-ethyl-6-(4-methylphenoxy)-1H-benzimidazol-2-yl]methyl}-L-alaninamide]: the “difference between extension ranges of reaction thresholds of Compound A and lidocaine groups” value in the series on SNL model rats (Example 1 ointment versus 5% lidocaine ointment) was “no statistically significant difference”. In the series on SNL model rats, the “extension range of reaction thresholds ± standard error (50% paw withdrawal threshold, after minus before administration)” value turned out to be 2.2 ± 0.56 g and the “extension range of reaction thresholds compared with the vehicle group” value was “statistically significantly increased”. Further, the “maximum concentration in plasma” value in series [1] was 16.9 µg/mL. This compound also gave a concentration at 2 h in series [2] of 25.2 ng/mL. Besides, in series [3] (30 mg/kg continuous intravenous for 30 minutes), the “rates of change of each ECG parameter compared with the vehicle group” value is “no statistically significant difference”. In addition, in series [3] (setting [4]), the “PR interval rate of change (prolonged)” value is listed as 22.3%, the “QRS interval rate of change (prolonged)” value is 10.3% and the “QTc interval rate of change (prolonged)” value came out at 9.0%. In addition, in series [3] (guinea pig maximum plasma concentration at 30 mg/kg versus SNL rat plasma concentration), the “plasma concentration without effect on the cardiovascular system relative to that at which the analgesic effect appeared” value was “about 670 times”. Further, the “effect on the cardiovascular system / ECG parameters” value in series [3] was “not observed until the dose rose to 30 mg/kg”.

For `CCN(CC)CC(=O)Nc1c(C)cccc1C` [lidocaine, reference compound], in the series with SNL model rats, the “extension range of reaction thresholds ± standard error (50% paw withdrawal threshold, after minus before administration)” value amounted to 4.1 ± 0.62 g and the “extension range of reaction thresholds compared with the vehicle group” value is listed as “statistically significantly increased”. For the same compound, in series [3] (setting [5]), the “PR interval rate of change (prolonged)” value is listed as 35.1% and the “QRS interval rate of change (prolonged)” value is given as 44.5%. For the same compound, in series [3], the “effect on the cardiovascular system / ECG parameters” value is recorded as “observed at a dose of 15 mg/kg”.

These data come from patent US11925621B2, “Medicinal preparation for external use” (Sumitomo Pharma Co., Ltd., priority 2018, dated 2024).
